Experimental findings from PMC5223195, “Novel long-chain compounds with both immunomodulatory and MenA inhibitory activities against Staphylococcus aureus and its biofilm” (Scientific Reports, 2017) are described below.

SMILES strings stand for the structures. Values after ≈ are worked out from the molar mass of the structure shown. Read-outs that look alike come from different tables or passages of the source.

In one assay the test system is MRSA USA500. Nature of the assay: MIC against MRSA USA500. In kind it is cell-based, Staphylococcus aureus. The following applies: TSB, 37 °C, 18–20 hours; for MIC: Staphylococcus aureus, read-out: MIC, Staphylococcus aureus isolate USA500. The procedure:
(§1) 96-well plates were seeded with 5 × 10^5 CFU/mL in a volume of 100 μL of tryptic soy broth (TSB) per well for Staphylococcus aureus assays. Compounds were dissolved in DMSO and serially diluted as 1:2 dilutions to give the final concentration ranging from 0.25 to 128 μg/mL per well. […] Plates were incubated at 37 °C for 18–20 hours and MIC was determined by reading OD625. For M.avium and M.abscessus, 7H9 broth media was used for determination of MICs. The final concentration was 5 × 10^5 CFU/mL in each well. The plate was incubated at 37 °C for 7–8 days and MICs were determined using a Tecan microplate reader (OD625) and resazurin reduction assay.

A further assay deals with MRSA USA100. Nature of the assay: MIC against MRSA USA100. In kind it is cell-based, Staphylococcus aureus. The settings on record: Staphylococcus aureus, read-out: MIC, Staphylococcus aureus isolate USA100. How it is done: as §1
For the next assay, the system named is MRSA USA700. As to the kind of experiment: MIC against MRSA USA700. Format: cell-based, Staphylococcus aureus. The settings on record: for MIC: Staphylococcus aureus, read-out: MIC, Staphylococcus aureus isolate USA700. The procedure:
as §1

In assay [1] the test system is Methicillin susceptible Staphylococcus aureus. As to the kind of experiment: MIC against MSSA. In kind it is cell-based. The following applies: for MIC: MSSA. The procedure: as §1
Another assay has as its system MRSA USA300. Nature of the assay: MIC against MRSA USA300. Format: cell-based, Staphylococcus aureus. The following applies: Staphylococcus aureus; TSB, 37 °C, 18–20 hours; read-out: MIC, Staphylococcus aureus isolate USA300. The procedure: as §1
A further assay deals with MRSA USA400. Nature of the assay: MIC against MRSA USA400. Format: cell-based, Staphylococcus aureus. The following applies: TSB, 37 °C, 18–20 hours; for MIC: Staphylococcus aureus, read-out: MIC, Staphylococcus aureus isolate USA400. How it is done: as §1
Another assay relates to Mycobacterium abscessus. Nature of the assay: MIC against Mycobacterium abscessus. The settings on record: Mycobacteroides abscessus, 7H9 broth, 7–8 days. Format: cell-based. The procedure: as §1
The subject of a further assay is MRSA USA200. Nature of the assay: MIC against MRSA USA200. In kind it is cell-based, Staphylococcus aureus. The following applies: for MIC: Staphylococcus aureus, read-out: MIC, Staphylococcus aureus isolate USA200. The procedure: as §1
For another assay, the system named is MRSA USA800. Nature of the assay: MIC against MRSA USA800. In kind it is cell-based, Staphylococcus aureus. The following applies: Staphylococcus aureus; TSB, 37 °C, 18–20 hours; read-out: MIC, Staphylococcus aureus isolate USA800. How it is done: as §1
Another assay deals with Gram-positive bacteria. Nature of the assay: MIC against Gram-positive bacteria (summary). The settings on record: range over all tested Gram-positive bacteria. In kind it is cell-based. The procedure: as §1
The test system of the next assay is Enterococcus faecalis. As to the kind of experiment: MIC against Enterococcus faecalis. The following applies: read-out: MIC, EF. In kind it is cell-based.
The next assay has as its system Mycobacterium avium. Nature of the assay: MIC against Mycobacterium avium. The following applies: 7H9 broth, 7–8 days. Format: cell-based. How it is done: as §1
The next assay concerns Pseudomonas aeruginosa. Nature of the assay: MIC against Pseudomonas aeruginosa. In kind it is cell-based. The settings on record: read-out: MIC, PA.

In general, MIC refers to the smallest concentration in the dilution series that meets the test's criterion for growth inhibition. `COc1ccc2ccc(OCCCCCCCCNCCc3ccc(Cl)cc3)cc2c1` [3b]: the MIC with MRSA USA500 was found to be 8 µg/mL (≈ 18.2 µM); in the assay with MRSA USA100 (TSB, 37 °C, 18–20 hours), 6 µg/mL (≈ 13.6 µM); with MRSA USA700 (TSB, 37 °C, 18–20 hours), 8 µg/mL (≈ 18.2 µM); in assay [1], 4 µg/mL (≈ 9.09 µM); in the assay on MRSA USA300, 6 µg/mL (≈ 13.6 µM); in the assay with MRSA USA400, 4 µg/mL (≈ 9.09 µM). Also, the MIC in the assay on Mycobacterium abscessus is 12 µg/mL (≈ 27.3 µM); in the assay with MRSA USA200 (TSB, 37 °C, 18–20 hours) it was 2 µg/mL (≈ 4.55 µM); with MRSA USA800, 6 µg/mL (≈ 13.6 µM); in the assay with Enterococcus faecalis, 0.5 µg/mL (≈ 1.14 µM); in the assay on Mycobacterium avium it was 4 µg/mL (≈ 9.09 µM); with Pseudomonas aeruginosa, more than 64 µg/mL. Further, the “MIC values against all Gram-positive bacteria (range)” value with Gram-positive bacteria was 0.5 to 16 µg/mL.
Take `COc1ccc2ccc(OCCCCCCCCN3CCc4ccccc4C3)cc2c1` [3d]: the “MIC, Staphylococcus aureus isolate USA500” value with MRSA USA500 turned out to be 128 µg/mL (≈ 307 µM). Further, the “MIC, Staphylococcus aureus isolate USA700” value in the assay with MRSA USA700 (TSB, 37 °C, 18–20 hours) was found to be 32 µg/mL (≈ 76.6 µM). In addition, the “MIC, MSSA” value in assay [1] was 32 µg/mL (≈ 76.6 µM). Besides, in the assay with MRSA USA400, the “MIC, Staphylococcus aureus isolate USA400” value amounted to 64 µg/mL (≈ 153 µM). Further, the “MIC, Staphylococcus aureus isolate USA200” value in the assay on MRSA USA200 (TSB, 37 °C, 18–20 hours) is more than 128 µg/mL.
Regarding `COc1ccc2ccc(OCCCCCCCCN3CCN(c4ccc(F)cc4)CC3)cc2c1` [3e], the MIC in the assay with MRSA USA700 and with Enterococcus faecalis was more than 128 µg/mL each time.
In the case of `COc1ccc2ccc(OCCCCCCCCn3c4ccccc4c4ccccc43)cc2c1` [3f], the minimal inhibitory concentration (MIC) in the assay on MRSA USA100 and in the assay with MRSA USA700 was more than 128 µg/mL in each case.
Consider `COc1ccc2ccc(OCCCCCCCCN3C(=O)OC[C@@H]3Cc3ccccc3)cc2c1` [3g], for which the MIC is more than 128 µg/mL in the assay on MRSA USA700 (TSB, 37 °C, 18–20 hours); more than 128 µg/mL in [1]; more than 128 µg/mL with MRSA USA400; more than 128 µg/mL in the assay on Pseudomonas aeruginosa.
For `COc1ccc2ccc(OCCCCCCCCN[C@@H]3CCOC3=O)cc2c1` [3h], the MIC with MRSA USA700 (TSB, 37 °C, 18–20 hours) is more than 128 µg/mL; in [1], more than 128 µg/mL; with MRSA USA400, more than 128 µg/mL; in the assay on Pseudomonas aeruginosa, more than 128 µg/mL.
Regarding `COc1ccc2ccc(OCCCCCCCCN3CCC(F)CC3)cc2c1` [3i], the MIC in the assay on MRSA USA700 is more than 128 µg/mL.
In the case of `C=CCN(C)CCCOC/C=C/COc1ccc2ccc(OC)cc2c1` [4a], the MIC with MRSA USA700 and with MRSA USA200 was 128 µg/mL (≈ 360 µM) throughout.
With `COc1ccc2ccc(OC/C=C/COCCCN3CCCCC3)cc2c1` [4b], the MIC with MRSA USA700 is 128 µg/mL (≈ 346 µM); with Pseudomonas aeruginosa, more than 128 µg/mL.
With `COc1ccc2ccc(OC/C=C/COCCCNCCc3ccc(F)cc3)cc2c1` [4c], the MIC in the assay with MRSA USA500 was 16 µg/mL (≈ 37.8 µM); in the assay on MRSA USA100 (TSB, 37 °C, 18–20 hours), 8 µg/mL (≈ 18.9 µM); with MRSA USA700 (TSB, 37 °C, 18–20 hours), 16 µg/mL (≈ 37.8 µM); in assay [1], 16 µg/mL (≈ 37.8 µM); with MRSA USA300 it was 8 µg/mL (≈ 18.9 µM); with MRSA USA400, 8 µg/mL (≈ 18.9 µM). In addition, the values for the MIC in the assay on MRSA USA800, with Mycobacterium avium and with Pseudomonas aeruginosa were 16 µg/mL (≈ 37.8 µM), 8 µg/mL (≈ 18.9 µM) and more than 64 µg/mL, respectively.
Turning to `Fc1ccc(CCNCCCCCCCCOc2ccc3cc(Br)ccc3c2)cc1` [5a], the minimal inhibitory concentration (MIC) with MRSA USA100 (TSB, 37 °C, 18–20 hours) is 16 µg/mL (≈ 33.9 µM); with MRSA USA700 (TSB, 37 °C, 18–20 hours), 4 µg/mL (≈ 8.47 µM); in the assay with MRSA USA300 it was 4 µg/mL (≈ 8.47 µM); in the assay with MRSA USA400 it was 8 µg/mL (≈ 16.9 µM); in the assay on MRSA USA200 (TSB, 37 °C, 18–20 hours) it was 4 µg/mL (≈ 8.47 µM); in the assay on Enterococcus faecalis, 2 µg/mL (≈ 4.23 µM).
For `Clc1ccc(CCNCCCCCCCCOc2ccc3cc(Br)ccc3c2)cc1` [5b], the MIC in the assay with MRSA USA100 (TSB, 37 °C, 18–20 hours) was more than 128 µg/mL; in the assay on MRSA USA700 (TSB, 37 °C, 18–20 hours), 64 µg/mL (≈ 131 µM); with MRSA USA300, 32 µg/mL (≈ 65.5 µM); in the assay with MRSA USA400, 64 µg/mL (≈ 131 µM); in the assay with MRSA USA200 (TSB, 37 °C, 18–20 hours) it was 16 µg/mL (≈ 32.7 µM); in the assay with Enterococcus faecalis, 16 µg/mL (≈ 32.7 µM).
